This is an account of results in US20250228831A1, “METHOD TO PREVENT AND TREAT GLAUCOMA BY CALCIUM CHANNEL BLOCKERS, ANGIOTENSIN CONVERTING ENZYME INHIBITORS, AND ANGIOTENSIN RECEPTOR BLOCKERS” (priority 2022, published 2025).

What all share (type): in vivo, human
The test system of one assay is primary form of glaucoma. As to the kind of experiment: Ramiprilat formulation given to the eye of a patient with a primary form of glaucoma. As to the method:
In this example, a patient with a primary form of glaucoma is administered a topical formulation comprising ramiprilat to the eye. […] The patient's primary form of glaucoma is therefore treated by the […] formulation.
In this example, a patient with a primary form of glaucoma is administered an injectable formulation comprising ramiprilat to the posterior chamber of the eye. […] The patient's primary form of glaucoma is therefore treated by the […] formulation.

The test system of assay [1] is glaucoma. The experiment in a line: Treatment of a patient diagnosed with glaucoma, one eye treated and the other left untreated.
Excerpt: (§1) A patient is diagnosed with glaucoma.
A patient is diagnosed with glaucoma. A composition comprising the ACE inhibitor enalapril is directly applied to the vitreous surface of one eye while the other eye is left untreated.
A patient is diagnosed with glaucoma. A composition comprising the angiotensin receptor blocker losartan is directly applied to the vitreous surface of one eye while the other eye is left untreated.
as §1
A patient is diagnosed with glaucoma. A composition comprising the ACE inhibitor enalapril is applied to the eye by intravitreal or intraocular injection while the other eye is left untreated.
A patient is diagnosed with glaucoma. A composition comprising the angiotensin receptor blocker losartan is applied to the eye by intravitreal or intraocular injection while the other eye is left untreated.

Assay [2] deals with glaucoma. As to the kind of experiment: Prevention of recurrence in a patient successfully treated for glaucoma, one eye treated and the other left untreated. The conditions noted are these: untreated eye shows signs of recurrence. An excerpt:
A composition comprising the ACE inhibitor enalapril is directly applied to the vitreous surface of one eye while the other eye is left untreated.
A composition comprising the angiotensin receptor blocker losartan is directly applied to the vitreous surface of one eye while the other eye is left untreated.
A composition comprising the ACE inhibitor enalapril is applied to the eye by intravitreal or intraocular injection while the other eye is left untreated.
A composition comprising the angiotensin receptor blocker losartan is applied to the eye by intravitreal or intraocular injection while the other eye is left untreated.

[3] abbreviates: injectable formulation to the posterior chamber of the eye.
Where [4] appears, read: composition applied by intravitreal or intraocular injection.
Where [5] appears, read: composition directly applied to the vitreous surface of one eye.

With Ramiprilat, in the assay on primary form of glaucoma (setting [3]), the “capillary networks and capillary blood supply to the eye” value is “grows capillary networks and increases the capillary blood supply”; the intraocular pressure entry is “reduction in intraocular pressure”; the optic nerve result is listed as “repair to the optic nerve”. Moreover, in the assay with primary form of glaucoma (topical formulation to the eye), the “capillary networks and capillary blood supply to the eye” value was “grows capillary networks and increases the capillary blood supply”; the intraocular pressure result is listed as “reduction in intraocular pressure”; the optic nerve result is given as “repair to the optic nerve”.

Take `CCOC(=O)[C@H](CCc1ccccc1)N[C@@H](C)C(=O)N1CCC[C@H]1C(=O)O` [enalapril]: the “symptoms of glaucoma, treated eye versus untreated eye” value with glaucoma [1] (setting [4]) and in the assay on glaucoma [1] (setting [5]) was “reduced symptoms of glaucoma” each time. The “recurrence of glaucoma, treated eye versus untreated eye” value in the assay on glaucoma [2] (setting [4]) and in the assay with glaucoma [2] (setting [5]) was “not develop glaucoma” each time.

On to `CCCCc1nc(Cl)c(CO)n1Cc1ccc(-c2ccccc2-c2nn[nH]n2)cc1` [losartan], for which the “symptoms of glaucoma, treated eye versus untreated eye” value in the assay on glaucoma [1] (setting [4]) and in the assay with glaucoma [1] (setting [5]) was “reduced symptoms of glaucoma” throughout. Moreover, the “recurrence of glaucoma, treated eye versus untreated eye” value in the assay with glaucoma [2] (setting [4]) and in the assay on glaucoma [2] (setting [5]) was “not develop glaucoma” throughout.
